The GI50 is the concentration giving 50% growth inhibition.

Where “and” joins values, the source holds several entries; their conditions need not be identical. Equal entries are not always repeated. Where two headings read alike, the source gives them in different places.

These results are taken from article PMC10888562 (International Journal of Molecular Sciences, 2024).

One data set deals with MCF-7 breast. Further details: method as in PMID 36142383, PMID 37173934, PMID 36296713. To be noted: cited from earlier work.
The subject of data set [1] is HT29 colon cells. Nature of the data set: TMRE mitochondrial membrane potential (MtMP) assay. To be noted: GI50 drug concentration (FCCP 20 μM). It counts as cell-based, human. The procedure: This was achieved by determining if the overproduction of ROS induced by these complexes impacts mitochondrial activity by altering MtMP. Briefly, there is evidence showing a strong correlation between increased levels of ROS and mitochondrial impairment. […] The MtMP changes recorded are measured as RFU. […] To investigate the MtMP changes in HT29 treated cells, a TMRE-MtMP Assay Kit (Abcam, Cambridge, MA, USA) was used, as previously described. In 96-well plates, 25,000 cells/mL of HT29 colon cells in DMEM were seeded. Cells were treated with a GI50 drug concentration for each complex. At 24, 48 or 72 h, cells were washed with PBS and stained with tetramethylrhodamine, ethyl ester (TMRE) (1 μM) and incubated for 30 min. TMRE was then removed, and cells were then re-washed with PBS (0.2% BSA), after which phenol red free media was added. The plates were directly scanned to measure fluorescence (expressed as RFU), using the Glo-Max®-Multimode microplate reader (Promega Corporation, Alexandra, VIC, Australia) at an excitation/emission of 549/575 nm. For the positive control, 20 μM carbonyl cyanide 4-(trifluoromethoxy) phenylhydrazone (FCCP)) was added to the cells and incubated for 10 min. The cells were washed with PBS (0.2% BSA) and stained with TMRE (1 μM) for 30 min; this was removed, and phenol red free media was added, and the final solution was scanned as mentioned above.

The next data set concerns MIA pancreas. The arrangement: method as in PMID 36142383, PMID 37173934, PMID 36296713. To be noted: cited from earlier work.
The subject of the next data set is Du145 prostate. The arrangement: method as in PMID 36142383, PMID 37173934, PMID 36296713. The note with it: cited from earlier work.
Data set [2] has as its system histone deacetylase (HDAC). Description: Fluorometric HDAC activity assay on extracts of treated HT29 cells. The class given is cell-based, human. The note with it: HT29 colon cells treated 72 h at GI50 concentration; lower RFU = decline in HDAC activity; HT29 extract control 5154 ± 40. The procedure:
All values are expressed as RFU.
To study the HDAC activity in HT29 treated cells, a Fluorometric HDAC Activity Assay Kit ab156064 (Abcam, Cambridge, MA, USA) was used and all sample preparations were made based on the manufacturer’s protocol. A total of 10^6 cells/mL of HT29 cells were seeded in DMEM with serum deprivation for 18 h to synchronise the cells. […] Cells were then washed with cold PBS and resuspended in lysis buffer (10 mM Tris HCl (pH 7.5), 10 mM NaCl, 15 mM MgCl2, 250 mM sucrose, 0.5% NP-40 and 0.1 mM EGTA) and lysed on ice for 20 min. Cells were centrifuged through 4 mL of sucrose cushion (30% sucrose, 10mM Tris HCl (pH 7.5), 10 mM NaCl and 3mM MgCl2) at 1300× g for 10 min at 4 °C. Supernatant was discarded and the pellet was washed and resuspended in extraction buffer (50 mM HEPES-KOH (pH 7.5), 420 mM NaCl, 0.5 mM EDTA 2Na, 0.1 mM EGTA and 10% glycerol) and then sonicated for 30 s. Nuclei were lysed for 30 min on ice and centrifuged at 20,000× g for 30 min. The supernatant was collected, and the samples were prepared for the fluorometric assay according to the manufacturer’s protocol (Histone Deacetylase (HDAC) Activity Assay Fluorometric Kit ab156064, Abcam). The changes in the relative fluorescence intensity (expressed as RFU) were recorded each minute over 60 min using the Glo-Max®-Multimode microplate reader (Promega Corporation, Alexandra, VIC, Australia) at an excitation/emission of 355/460 nm.

Data set [3] relates to non-tumour-derived MCF10A breast line. The arrangement: method as in PMID 36142383, PMID 37173934, PMID 36296713. To be noted: cited from earlier work.
The test system of a further data set is HT29 colon. The arrangement: method as in PMID 36142383, PMID 37173934, PMID 36296713. The note with it: cited from earlier work.
For a further data set, the system named is A2780 ovarian. Further details: method as in PMID 36142383, PMID 37173934, PMID 36296713. The note with it: cited from earlier work.
The test system of another data set is SJ-G2 glioblastoma. Further details: method as in PMID 36142383, PMID 37173934, PMID 36296713. To be noted: cited from earlier work.
The subject of a further data set is A431 skin. The arrangement: method as in PMID 36142383, PMID 37173934, PMID 36296713. The note with it: cited from earlier work.
The subject of a further data set is BE2-C neuroblastoma. Further details: method as in PMID 36142383, PMID 37173934, PMID 36296713. The note with it: cited from earlier work.
The test system of another data set is U87 glioblastoma. Further details: method as in PMID 36142383, PMID 37173934, PMID 36296713. To be noted: cited from earlier work.
Data set [4] has as its system cisplatin-resistant ADDP ovarian variant. The arrangement: method as in PMID 36142383, PMID 37173934, PMID 36296713. To be noted: cited from earlier work.
Another data set has as its system H460 lung. Further details: method as in PMID 36142383, PMID 37173934, PMID 36296713. To be noted: cited from earlier work.
In data set [5] the test system is multiple human cell lines. The arrangement: method as in PMID 36142383, PMID 37173934, PMID 36296713. To be noted: average over all cell lines; cited from earlier work.
The subject of data set [6] is HT29 colon cells. Further details: method as in PMID 36142383, PMID 37173934, PMID 36296713. The note with it: cited from earlier work.
For the next data set, the system named is peritoneal carcinoma. The arrangement: method as in PMID 20535526. The note with it: BD-IX rats with peritoneal carcinoma; cited from earlier work.
The test system of another data set is prostate tumour. Further details: method as in PMID 18997969. To be noted: mice with prostate tumour; cited from earlier work.

For `Cc1c(C)c2cccnc2c2ncccc12.N[C@H]1CCCC[C@@H]1N.[OH][Pt+2][OH]` [56MESS(IV)(OH)2], the GI50 with MCF-7 breast is 480 ± 140 nM; in the data set with MIA pancreas, 43 ± 2.5 nM; with Du145 prostate it was 15 ± 2.6 nM; in data set [3], 61 ± 7 nM; in the data set on HT29 colon, 36 ± 7 nM; with A2780 ovarian, 59 ± 7 nM. Further, the GI50 in the data set with SJ-G2 glioblastoma is 210 ± 45 nM; in the data set on A431 skin, 120 ± 22 nM; with BE2-C neuroblastoma it was 240 ± 22 nM; in the data set with U87 glioblastoma, 190 ± 23 nM; in [4], 170 ± 120 nM; in the data set on H460 lung, 190 ± 150 nM. In data set [5], the GI50 is 151 ± 50 nM. In addition, the “MtMP Changes” value in the data set with HT29 colon cells [1] (24 h, control 542 ± 4) was 291 ± 9 RFU; in the data set with HT29 colon cells [1] (48 h, control 507 ± 11), 221 ± 5 RFU; in the data set on HT29 colon cells [1] (72 h, control 449 ± 10), 188 ± 5 RFU. Besides, the “HDAC Inhibition at 72 h” value in data set [2] turned out to be 3011 ± 23 RFU. Moreover, the “ROS Production” value in the data set with HT29 colon cells [6] (24 h) is recorded as 259 ± 3 RFU; in the data set with HT29 colon cells [6] (48 h), 356 ± 11 RFU; in the data set on HT29 colon cells [6] (72 h) it was 438 ± 7 RFU.

On to `Cc1c(C)c2cccnc2c2ncccc12.N[C@H]1CCCC[C@@H]1N.[Pt]` [56MESS, [Pt^II(5,6-Me2phen)(SS-DACH)]^2+], for which the GI50 in the data set with MCF-7 breast is 93 ± 44 nM; with MIA pancreas it was 13 ± 2 nM; in the data set on Du145 prostate it was 4.6 ± 0.4 nM; in [3], 16 ± 1 nM; with HT29 colon, 10 ± 1.6 nM; with A2780 ovarian it was 76 ± 57 nM. Further, the GI50 was 66 ± 22 nM in the data set with SJ-G2 glioblastoma; 29 ± 1 nM in the data set on A431 skin; 59 ± 4 nM with BE2-C neuroblastoma; 35 ± 6.4 nM in the data set with U87 glioblastoma; 13 ± 2 nM in data set [4]; 21 ± 2 nM in the data set with H460 lung. For the same molecule, in data set [5], the GI50 is 36 ± 10 nM. Further, the nephrotoxicity result in the data set on peritoneal carcinoma is listed as “caused nephrotoxicity”. For the same molecule, the tumour suppression result in the data set on peritoneal carcinoma is recorded as “ineffective in suppressing tumour”. Besides, the “MtMP Changes” value in the data set on HT29 colon cells [1] (24 h, control 542 ± 4) turned out to be 277 ± 5 RFU; with HT29 colon cells [1] (48 h, control 507 ± 11), 211 ± 7 RFU; in the data set with HT29 colon cells [1] (72 h, control 449 ± 10), 151 ± 7 RFU. Moreover, in data set [2], the “HDAC Inhibition at 72 h” value is 1847 RFU and 1847 ± 42 RFU. Further, the “ROS Production” value in the data set on HT29 colon cells [6] (24 h) was 240 ± 5 RFU; in the data set with HT29 colon cells [6] (48 h), 218 ± 3 RFU; in the data set on HT29 colon cells [6] (72 h), 255 ± 4 RFU.

For `N[C@H]1CCCC[C@@H]1N.[OH][Pt+2][OH].c1cnc2c(c1)ccc1cccnc12` [PHENSS(IV)(OH)2], the GI50 in the data set with MCF-7 breast is 16000 nM; in the data set with MIA pancreas, 3400 ± 2200 nM; in the data set with Du145 prostate, 310 ± 92 nM; in [3], 1700 ± 200 nM; in the data set on HT29 colon, 710 ± 300 nM; in the data set on A2780 ovarian, 800 ± 84 nM. Besides, the concentration for 50% growth inhibition (GI50) with SJ-G2 glioblastoma is 1700 ± 350 nM; with A431 skin, 4300 ± 530 nM; with BE2-C neuroblastoma it was 3000 ± 530 nM; in the data set with U87 glioblastoma it was 4900 ± 610 nM; in [4], 1300 ± 350 nM; in the data set on H460 lung it was 1700 ± 200 nM. The GI50 in data set [5] is 3320 ± 880 nM. Also, the “MtMP Changes” value with HT29 colon cells [1] (24 h, control 542 ± 4) is reported as 328 ± 7 RFU; in the data set on HT29 colon cells [1] (48 h, control 507 ± 11), 314 ± 6 RFU; in the data set with HT29 colon cells [1] (72 h, control 449 ± 10), 234 ± 11 RFU. In addition, the “HDAC Inhibition at 72 h” value in [2] is recorded as 4107 ± 19 RFU. Further, the “ROS Production” value is on record as 144 ± 5 RFU in the data set with HT29 colon cells [6] (24 h), 273 ± 4 RFU in the data set with HT29 colon cells [6] (48 h) and 303 ± 1 RFU in the data set with HT29 colon cells [6] (72 h).

For the molecule `N[C@H]1CCCC[C@@H]1N.[Pt+2].c1cnc2c(c1)ccc1cccnc12` [PHENSS, [Pt^II(phen)(SS-DACH)]^2+], the GI50 in the data set on MCF-7 breast was 1500 ± 500 nM; in the data set on MIA pancreas it was 200 ± 57 nM; with Du145 prostate, 100 ± 38 nM; in data set [3], 300 ± 58 nM; in the data set with HT29 colon, 160 ± 45 nM; with A2780 ovarian, 230 ± 30 nM. Moreover, the GI50 in the data set with SJ-G2 glioblastoma was 330 ± 66 nM; with A431 skin, 480 ± 170 nM; in the data set on BE2-C neuroblastoma, 380 ± 46 nM; in the data set with U87 glioblastoma, 980 ± 270 nM; in [4] it was 190 ± 47 nM; in the data set with H460 lung it was 360 ± 35 nM. Besides, in data set [5], the GI50 was 434 ± 110 nM. For the same molecule, the “MtMP Changes” value in the data set on HT29 colon cells [1] (24 h, control 542 ± 4) is recorded as 321 ± 7 RFU; in the data set with HT29 colon cells [1] (48 h, control 507 ± 11), 305 ± 5 RFU; with HT29 colon cells [1] (72 h, control 449 ± 10), 257 ± 6 RFU. For the same molecule, the “HDAC Inhibition at 72 h” value in data set [2] is 3733 ± 37 RFU. Besides, in the data set on prostate tumour, the “rate of tumour regression” value is “comparable to cisplatin”. For the same molecule, the toxicity result in the data set with prostate tumour is on record as “no toxicity was detected”. In addition, the “ROS Production” value is listed as 174 ± 2 RFU in the data set on HT29 colon cells [6] (24 h), 172 ± 9 RFU in the data set with HT29 colon cells [6] (48 h) and 176 ± 7 RFU in the data set on HT29 colon cells [6] (72 h).
